In US6423352B1 (priority 1998, dated 2002):
Read-outs that look alike come from different tables or passages of the source.

Key:
Type in all cases: in vivo
Phytophthora infestans [1] = details: for % diseased leaf area, late blight potato, 5 d: Example 17, none 100; for % Protection, late blight in potato / Diseased leaf area, late blight in potato: Example 2; for Diseased leaf area, late blight in potato: recorded 4 days post inoculation, untreated control 98
[2] = test system: Erysiphe graminis tritici; test: powdery mildew in wheat: sprayed plants inoculated, diseased leaf area recorded; details: for % diseased leaf area, powdery mildew wheat, 8 d: Example 17, none 69; for % diseased leaf area, wheat powdery mildew, 10 d: Example 14, solvent conc. 1%, inoculation three hours after spray, none (control) 50
Procedure: (§1) To test the efficacy of these extracts and suspensions, experiments were performed in which plants were sprayed using a fine glass atomizer with either Inula extract or with pure solvent as a control for the Inula extracts, with either Inula extract and emulsifier or with an emulsifier solution as a control for the emulsified Inula extracts, and with either Inula suspension or with water or emulsifier solution as a control for the Inula suspensions. Treated and control plants were then inoculated with a crop-respective fungal pathogen. After an incubation period, the extent of the infection was measured. Unless otherwise stated, percentage protection from the disease due to the treatment with the Inula extract or suspension was calculated as:
(§2) % control of the disease=[1−(% infection and treated plants/% infection in control plants)]×100.
The crop plants and pathogens used for inoculation are described in the following list.
Inoculation with P. infestants, P. cubensis, P. tabacina, P. viticola, B. cinera and C. fulvum was done by spraying a spore suspension in distilled water onto the upper leaf surfaces of the treated (and the control) plants. Inoculated plants were kept in a dew chamber at 18-20° C. in the dark for 16-20 hours and then in a growth chamber at 20° C. with 12 hours photoperiod. Inoculation with E. graminis and S. fuliginea was done by blowing spores over the treated (and control) plants. Inoculated plants were then kept in a growth chamber as above.
(§3) Disease records were visually estimated in the inoculated plants at 3-13 days after inoculation, depending on the crop and disease. Percentage leaf area occupied with disease symptoms or fungal colonies was recorded and given in the results section.

Phytophthora infestans [3] = details: for % diseased leaf area, late blight tomato, 5 d: Example 17, none 81; for % diseased leaf area, solvent control: Example 12, late blight in tomato, untreated control 81
[4] = test system: Pseudoperonospora cubensis; test: downy mildew in cucumber: sprayed plants inoculated, disease recorded; details: Example 14; solvent conc. 1%; inoculation three hours after spray; none (control) 88
Procedure: as §1, §2
The crop plants and pathogens used for inoculation are described in the following list. […]
as §3

With `c1c[nH]cn1` [Imidazole only, imidazole] the “% diseased leaf area, late blight potato, 5 d” value (Phytophthora infestans [1]; imidazole only 0.12% pH 9.55) was 50%, the “% diseased leaf area, late blight potato, 5 d” value (Phytophthora infestans [1]; imidazole only 0.25% pH 9.70) was 50% and the “% diseased leaf area, late blight potato, 5 d” value (Phytophthora infestans [1]; imidazole only 0.5% pH 9.86) was 25%. The “% diseased leaf area, late blight potato, 5 d” value (Phytophthora infestans [1]; imidazole only 1% pH 9.95) was 18%, the “% diseased leaf area, powdery mildew wheat, 8 d” value (“% diseased leaf area … 8 d” below) ([2]; imidazole only 0.12% pH 9.55) was 63% and the “% diseased leaf area … 8 d” value ([2]; imidazole only 0.25% pH 9.70) was 50%. The “% diseased leaf area … 8 d” value ([2]; imidazole only 0.5% pH 9.86) was 23%, the “% diseased leaf area … 8 d” value ([2]; imidazole only 1% pH 9.95) was 25% and the “% diseased leaf area, late blight tomato, 5 d” value (Phytophthora infestans [3]; imidazole only 0.12% pH 9.55) was 95%. The “% diseased leaf area, late blight tomato, 5 d” value (Phytophthora infestans [3]; imidazole only 0.25% pH 9.70) was 88%, the “% diseased leaf area, late blight tomato, 5 d” value (Phytophthora infestans [3]; imidazole only 0.5% pH 9.86) was 69% and the “% diseased leaf area, late blight tomato, 5 d” value (Phytophthora infestans [3]; imidazole only 1% pH 9.95) was 50%.

With `N.O` [NH4OH, ammonium hydroxide] the “% Protection, late blight in potato” value (Phytophthora infestans [1]; NH4OH 1%) was 0%, the “Diseased leaf area, late blight in potato” value (Phytophthora infestans [1]; NH4OH 1%) was 100 and the “% Protection, late blight in potato” value (Phytophthora infestans [1]; NH4OH 2%) was 0%. The “Diseased leaf area, late blight in potato” value (Phytophthora infestans [1]; NH4OH 2%) was 100, the “% Protection, late blight in potato” value (Phytophthora infestans [1]; NH4OH 4%) was 0% and the “Diseased leaf area, late blight in potato” value (Phytophthora infestans [1]; NH4OH 4%) was 100. The “% Protection, late blight in potato” value (Phytophthora infestans [1]; NH4OH 8% (= 2% aqueous NH3)) was 0% and the “Diseased leaf area, late blight in potato” value (Phytophthora infestans [1]; NH4OH 8% (= 2% aqueous NH3), inoculated 2 days after spray) was 100.

For `C1CNCCN1.O` [piperazine hydrate], the “% diseased leaf area, solvent control” value (Phytophthora infestans [3]; solvent alone 0.05M) was 81% and the “% diseased leaf area, solvent control” value (Phytophthora infestans [3]; solvent alone 0.1M) was 81%.

With `C1CCNCC1` [piperidine] the “% diseased leaf area, cucumber downy mildew, 6 d” value [4] was 94%, the “% diseased leaf area, wheat powdery mildew, 10 d” value [2] was 25% and the “% diseased leaf area, Tomato late blight, 4 d” value (Phytophthora infestans [3]; Example 14, solvent conc. 1%, inoculation three hours after spray, none (control) 88) was 88%.

tetraethylene was tested, and the “% diseased leaf area, cucumber downy mildew, 6 d” value [4] was 31%, the “% diseased leaf area, wheat powdery mildew, 10 d” value [2] was 50% and the “% diseased leaf area, Tomato late blight, 4 d” value (Phytophthora infestans [3]; in vivo) was 63%.
